Measured values published in publication PMC8477192, “An ionic lock and a hydrophobic zipper mediate the coupling between an insect pheromone receptor BmOR3 and downstream effectors” (The Journal of Biological Chemistry, 2021).

Legend:
BmOR3 [1] = molecular target: T1, BmOR3 (Bombyx mori, UniProt Q5FBE0); test: G protein recruitment BRET assay (Gi-Rluc to YFP-BmOR3); format: cell-based; conditions: HEK293 cells, 2 min stimulation
Procedure: Gi1-Rluc, Gi2-Rluc, and Gi3-Rluc plasmids were constructed according to previous report ([30]). HEK293 cells were transiently cotransfected with N-terminal YFP-tagged BmOR3 together with Gi-Rluc plasmids. Twenty-four hours after transfection, cells were distributed into a 96-well microplate. After another 24 h, the cells were stimulated with an increasing amount of bombykal for 2 min. The light emission of Rluc (485 nm) and YFP (530 nm) was measured after the addition of the Rluc substrate coelenterazine h (5 μM) using a Mithras LB 940 multimode reader (Berthold Technologies). The BRET signal was calculated as the ratio of emission of YFP to Rluc. The net BERT value was calculated by subtracting the BRET signal obtained in the cells transfected with Rluc-Gi plasmids only.

BmOR3 [2] = molecular target: T1, BmOR3; test: BRET-based internalization assay (Rluc-BmOR3 / Lyn-YFP); format: cell-based; conditions: HEK293 cells; 1 μM, 20 min
Procedure: BRET-based internalization assay was performed as previously described ([57]). Briefly, HEK293 cells treated with Ctrl or β-arrestin-1/2 siRNA, or pretransfected with BmArr, were transiently transfected with N-terminal Rluc-fused BmOR3 and plasma membrane marker Lyn-YFP. Twenty-four hours after transfection, the cells were detached and distributed into a 96-well microplate. After another 24-h incubation at 37 °C, the cells were stimulated with vehicle or 1 μM bombykal at 37 °C for 20 min. Rluc substrate coelenterazine h was added at a final concentration of 5 μM before light emissions of YFP and Rluc were recorded using a Mithras LB 940 microplate reader (Berthold Technologies). The BRET signal was calculated as the ratio of emission of YFP to Rluc.

BmOR3 [3] = molecular target: T1, BmOR3; test: GloSensor cAMP assay; format: cell-based; conditions: BmOR3-transfected HEK293 cells, not in mock cells; 1 μM forskolin
Procedure: The GloSensor cAMP assay was performed as previously described ([40], [55], [56]). Briefly, HEK293 cells were transfected with the BmOR3 plasmid or empty vector pcDNA3.1 together with the GloSensor plasmid. 24 h after transfection, cells were distributed into 96-well microplates at a density of 50,000 cells/well. After another 24 h, the cells were incubated with DMEM containing 2% (v/v) GloSensor cAMP reagent for 2 h at 37 °C. Cells were then treated with varying concentrations of bombykal followed by the stimulation of 1 μM forskolin. The luminescence intensity was measured using an EnVision multi-label microplate detector (PerkinElmer).

BmOR3 [4] = molecular target: T1, BmOR3; test: Arrestin recruitment BRET assay; format: cell-based; conditions: HEK293 cells, 10 min stimulation
Procedure: HEK293 cells were transiently cotransfected with the N-terminal YFP-tagged BmOR3 together with N-terminal Rluc-fused β-arrestin-1, β-arrestin-2, or BmArr plasmids. Twenty-four hours after transfection, cells were distributed into a 96-well microplate and incubated for additional 24 h. The cells were stimulated with varying concentrations of bombykal for 10 min, and the BRET signal between YFP (530 nm) and Rluc (485 nm) was measured after the addition of the Rluc substrate coelenterazine h (5 μM) using a Mithras LB 940 multimode reader (Berthold Technologies). The BRET signal was calculated as the ratio of emission of YFP to Rluc.

BmOR3 [5] = molecular target: T1, BmOR3; test: G protein dissociation BRET assay (TRUPATH probes); format: cell-based
Procedure: The Gi, Gq, Go, Gs, and Gz dissociation BRET probes were from the TRUPATH kit, which was a gift from Bryan Roth (Addgene kit #1000000163 ([31])). HEK293 cells were cotransfected with BmOR3 along with specific G protein BRET probes. After 24 h, the cells were reseeded in 96-well microplates and incubated for another 24 h. The cells were washed twice with Hank's balanced salt solution and stimulated with bombykal at different concentrations for 2 min. The light emission of Rluc8 (400 nm) and GFP10 (510 nm) was measured after the addition of the substrate coelenterazine 400a (5 μM) using a Mithras LB 940 multimode reader (Berthold Technologies). The BRET signal was calculated as the ratio of light emission at 510/400 nm.

BmOR3 and BmOrco = test: CalfluxVTN Ca2+ assay (BRET-based calcium sensor); format: cell-based, Bombyx mori
Procedure: HEK293 cells were cotransfected with plasmids encoding WT BmOR3 and BmOrco or their mutants, or AT1R together with CalfluxVTN probe. 24 h after transfection, cells were redistributed into 96-well flat-bottomed microplates. After another 24 h, cells were incubated with conventional buffer with Ca^2+ (135 mM NaCl, 5 mM KCl, 1 mM CaCl2, 5 mM D-glucose, 10 mM Hepes; pH = 7.4) or with Ca^2+-free buffer (135 mM NaCl, 5 mM KCl, 1 mM EGTA, 5 mM D-glucose, 10 mM Hepes; pH = 7.4), and stimulated with different concentrations of Bombykal (or AngII). The BRET ratio between Venus and Nluc was measured before (baseline) and after the addition of the Nluc substrate furimazine (5 μM) using a Mithras LB 940 multimode reader (Berthold Technologies). The BRET signal was calculated as ratio of emission of Venus (530 nm) to Nluc (460 nm). The baseline value was subtracted from the bombykal-stimulated BRET signal to obtain the ΔBRET value.

T1 sequence (Q5FBE0 entry or part of it): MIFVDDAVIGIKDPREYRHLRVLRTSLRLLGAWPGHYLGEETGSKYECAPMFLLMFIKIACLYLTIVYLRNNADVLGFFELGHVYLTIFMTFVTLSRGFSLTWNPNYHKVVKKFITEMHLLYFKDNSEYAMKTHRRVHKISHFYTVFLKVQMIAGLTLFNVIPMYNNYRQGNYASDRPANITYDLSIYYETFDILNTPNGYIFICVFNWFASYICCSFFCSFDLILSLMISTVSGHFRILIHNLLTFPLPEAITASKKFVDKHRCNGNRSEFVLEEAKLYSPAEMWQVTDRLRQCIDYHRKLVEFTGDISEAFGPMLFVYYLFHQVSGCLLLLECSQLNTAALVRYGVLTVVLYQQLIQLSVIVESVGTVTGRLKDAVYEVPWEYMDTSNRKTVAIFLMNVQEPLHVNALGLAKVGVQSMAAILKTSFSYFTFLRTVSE

With CCC/C=C\C=C\CCCCCCCCC=O [bombykal] the EC50 (BmOR3 [1]; Gi1, read-out: EC50 of coupling of Rluc-tagged Gi1 to YFP-fused BmOR3) was 11.7 ± 1.19 nM, the EC50 (BmOR3 [1]; Gi2, read-out: EC50 of coupling of Rluc-tagged Gi2 to YFP-fused BmOR3) was 22 ± 3.22 nM and the EC50 (BmOR3 [1]; Gi3, read-out: EC50 of coupling of Rluc-tagged Gi3 to YFP-fused BmOR3) was 10.6 ± 2.06 nM. For the same molecule, the “BmOR3 internalization (BRET signal between Rluc-BmOR3 and Lyn-YFP)” value (BmOR3 [2]) was “significant decrease in the BRET signal”, the “forskolin-induced cAMP” value (BmOR3 [3]) was “concentration-dependent decrease” and the EC50 (BmOR3 [4]; BmArr1, read-out: potency of recruitment of BmArr1 to BmOR3 (concentration-dependent)) was 90 ± 11.1 nM. For the same molecule, the EC50 (BmOR3 [4]; β-arrestin-2, read-out: potency of recruitment of β-arrestin-2 to BmOR3 (concentration-dependent)) was 151 ± 21.3 nM, the Go activation (BmOR3 [5]; HEK293 cells transfected with BmOR3, Go probes) was “did not induce” and the Gq activation (BmOR3 [5]; HEK293 cells transfected with BmOR3, Gq probes) was “did not induce”. For the same molecule, the Gs activation (BmOR3 [5]; HEK293 cells transfected with BmOR3, Gs probes) was “did not induce”, the Gz activation (BmOR3 [5]; HEK293 cells transfected with BmOR3, Gz probes) was “did not induce” and the EC50 (BmOR3 [5]; HEK293 cells, Gi BRET probes, 2 min stimulation, read-out: EC50 of Gi activation through BmOR3 (decrease of the BRET signal)) was 16.4 ± 5.04 nM. The “Ca2+ signal through BmOR3–BmOrco in the Ca2+-free incubating buffer” value (BmOR3 and BmOrco; 1 μM, Ca2+-free buffer versus Ca-containing buffer) was “completely abolished”, the “Ca2+ response through BmOR3/BmOrco relative to that induced by angiotensin II through activating AT1R” value (BmOR3 and BmOrco; 1 μM, CalfluxVTN-expressing HEK293 cells, receptors expressed at similar levels) was “approximately 70%” and the “calcium influx in response to stimulation” value (BmOR3 and BmOrco; HEK293 cells coexpressing BmOR3 and BmOrco, not with BmOR3 or BmOrco alone) was “elicited robust calcium influx”.
